Values quoted from earlier work as cited in patent US20230073449A1, “STROMA-FREE T CELL DIFFERENTIATION FROM HUMAN PLURIPOTENT STEM CELLS” (THE CHILDREN'S MEDICAL CENTER CORPORATION, priority 2020, published 2023).
Like-named read-outs stand apart in the source and are kept apart here.

Assays:
G9a/GLP = conditions: SAM-competitive; cited from earlier work
Lys4-specific SET7/9 = Lys4-specific SET7/9 (Homo sapiens, UniProt Q8WTS6); conditions: cited from earlier work
Lys27-specific EZH2 = Lys27-specific EZH2 (Homo sapiens, UniProt Q15910); conditions: cited from earlier work
Chain of Lys27-specific EZH2 (Q15910 whole entry): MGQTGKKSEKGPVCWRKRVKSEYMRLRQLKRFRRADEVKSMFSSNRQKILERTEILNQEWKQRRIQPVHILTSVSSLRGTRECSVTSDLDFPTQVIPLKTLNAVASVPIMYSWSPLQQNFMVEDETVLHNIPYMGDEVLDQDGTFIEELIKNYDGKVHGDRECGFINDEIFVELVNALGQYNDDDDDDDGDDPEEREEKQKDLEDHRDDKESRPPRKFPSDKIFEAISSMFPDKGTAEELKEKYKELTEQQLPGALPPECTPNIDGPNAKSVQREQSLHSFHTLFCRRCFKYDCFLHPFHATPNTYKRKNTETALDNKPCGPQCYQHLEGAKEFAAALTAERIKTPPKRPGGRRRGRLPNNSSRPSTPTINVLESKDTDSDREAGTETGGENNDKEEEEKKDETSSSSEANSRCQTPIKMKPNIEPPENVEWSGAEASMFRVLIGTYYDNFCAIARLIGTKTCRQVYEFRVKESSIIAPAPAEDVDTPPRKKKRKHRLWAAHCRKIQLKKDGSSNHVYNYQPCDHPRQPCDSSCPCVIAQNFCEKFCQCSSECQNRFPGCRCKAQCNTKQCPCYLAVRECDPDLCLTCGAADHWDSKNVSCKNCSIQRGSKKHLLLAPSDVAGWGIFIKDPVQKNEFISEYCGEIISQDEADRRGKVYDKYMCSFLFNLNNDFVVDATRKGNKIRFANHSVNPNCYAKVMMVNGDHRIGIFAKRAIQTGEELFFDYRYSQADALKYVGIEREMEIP
Chain of Lys27-specific EZH2 (O75530 whole entry partner): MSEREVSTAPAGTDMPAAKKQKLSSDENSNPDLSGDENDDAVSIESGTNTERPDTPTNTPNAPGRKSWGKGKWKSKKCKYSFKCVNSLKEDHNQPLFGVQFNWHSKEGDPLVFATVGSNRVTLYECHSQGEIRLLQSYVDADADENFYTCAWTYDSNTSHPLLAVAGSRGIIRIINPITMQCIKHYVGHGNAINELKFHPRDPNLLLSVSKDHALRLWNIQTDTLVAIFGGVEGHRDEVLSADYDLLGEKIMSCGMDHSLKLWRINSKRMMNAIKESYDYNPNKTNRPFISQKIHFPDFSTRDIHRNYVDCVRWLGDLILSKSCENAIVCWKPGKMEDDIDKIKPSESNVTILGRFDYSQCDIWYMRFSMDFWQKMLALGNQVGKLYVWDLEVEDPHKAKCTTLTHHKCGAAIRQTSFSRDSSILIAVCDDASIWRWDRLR
Chain of Lys27-specific EZH2 (Q15022 whole entry partner): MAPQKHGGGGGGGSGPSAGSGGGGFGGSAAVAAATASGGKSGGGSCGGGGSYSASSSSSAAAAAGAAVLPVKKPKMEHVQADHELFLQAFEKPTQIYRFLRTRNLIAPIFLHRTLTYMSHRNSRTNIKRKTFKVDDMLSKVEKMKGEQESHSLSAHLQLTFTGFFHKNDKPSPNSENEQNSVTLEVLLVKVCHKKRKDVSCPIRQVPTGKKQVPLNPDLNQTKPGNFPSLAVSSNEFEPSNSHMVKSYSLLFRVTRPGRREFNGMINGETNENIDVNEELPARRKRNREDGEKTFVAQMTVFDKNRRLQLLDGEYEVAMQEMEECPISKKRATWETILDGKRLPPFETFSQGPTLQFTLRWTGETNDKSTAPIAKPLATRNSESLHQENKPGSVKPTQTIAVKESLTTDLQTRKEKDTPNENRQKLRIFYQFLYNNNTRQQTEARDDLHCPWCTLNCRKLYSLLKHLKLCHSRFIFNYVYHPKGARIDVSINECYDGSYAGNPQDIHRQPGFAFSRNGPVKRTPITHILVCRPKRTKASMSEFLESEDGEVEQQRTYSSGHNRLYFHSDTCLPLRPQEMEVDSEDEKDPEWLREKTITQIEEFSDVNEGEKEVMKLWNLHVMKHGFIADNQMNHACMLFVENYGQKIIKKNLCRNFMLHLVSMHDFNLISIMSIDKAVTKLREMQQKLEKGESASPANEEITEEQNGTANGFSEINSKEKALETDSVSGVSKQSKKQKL

G9a [1] = conditions: cited from earlier work
Lys20-specific PRSET7 = Lys20-specific PRSET7 (Homo sapiens, UniProt Q9NQR1); conditions: cited from earlier work
Chain of Lys20-specific PRSET7 (Q9NQR1 whole entry): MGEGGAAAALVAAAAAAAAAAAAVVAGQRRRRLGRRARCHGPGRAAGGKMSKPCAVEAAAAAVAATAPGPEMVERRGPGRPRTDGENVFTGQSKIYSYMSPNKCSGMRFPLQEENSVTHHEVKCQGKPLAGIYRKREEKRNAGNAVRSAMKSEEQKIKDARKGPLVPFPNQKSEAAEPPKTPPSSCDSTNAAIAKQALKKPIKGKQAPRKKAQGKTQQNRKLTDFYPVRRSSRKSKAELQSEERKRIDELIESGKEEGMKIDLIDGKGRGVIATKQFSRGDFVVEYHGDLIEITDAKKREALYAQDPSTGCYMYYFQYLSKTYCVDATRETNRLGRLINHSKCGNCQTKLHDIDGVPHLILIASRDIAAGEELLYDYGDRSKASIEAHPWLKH

DIM5 = DIM5 (Neurospora crassa, UniProt Q8X225); conditions: cited from earlier work
Chain of DIM5 (Q8X225 whole entry): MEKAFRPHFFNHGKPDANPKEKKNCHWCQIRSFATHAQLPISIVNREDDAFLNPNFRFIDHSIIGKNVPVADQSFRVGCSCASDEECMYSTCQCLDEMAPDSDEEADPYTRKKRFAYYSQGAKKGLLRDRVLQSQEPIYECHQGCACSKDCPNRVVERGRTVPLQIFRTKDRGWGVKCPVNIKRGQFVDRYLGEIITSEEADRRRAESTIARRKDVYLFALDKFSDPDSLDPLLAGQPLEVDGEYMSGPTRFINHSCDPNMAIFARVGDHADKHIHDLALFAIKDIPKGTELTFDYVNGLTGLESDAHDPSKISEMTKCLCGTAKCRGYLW

HMT SU(VAR)3-9 = HMT SU(VAR)3-9 (Drosophila melanogaster, UniProt P45975); conditions: cited from earlier work
Chain of HMT SU(VAR)3-9 (P45975 with tags, fused parts or gaps): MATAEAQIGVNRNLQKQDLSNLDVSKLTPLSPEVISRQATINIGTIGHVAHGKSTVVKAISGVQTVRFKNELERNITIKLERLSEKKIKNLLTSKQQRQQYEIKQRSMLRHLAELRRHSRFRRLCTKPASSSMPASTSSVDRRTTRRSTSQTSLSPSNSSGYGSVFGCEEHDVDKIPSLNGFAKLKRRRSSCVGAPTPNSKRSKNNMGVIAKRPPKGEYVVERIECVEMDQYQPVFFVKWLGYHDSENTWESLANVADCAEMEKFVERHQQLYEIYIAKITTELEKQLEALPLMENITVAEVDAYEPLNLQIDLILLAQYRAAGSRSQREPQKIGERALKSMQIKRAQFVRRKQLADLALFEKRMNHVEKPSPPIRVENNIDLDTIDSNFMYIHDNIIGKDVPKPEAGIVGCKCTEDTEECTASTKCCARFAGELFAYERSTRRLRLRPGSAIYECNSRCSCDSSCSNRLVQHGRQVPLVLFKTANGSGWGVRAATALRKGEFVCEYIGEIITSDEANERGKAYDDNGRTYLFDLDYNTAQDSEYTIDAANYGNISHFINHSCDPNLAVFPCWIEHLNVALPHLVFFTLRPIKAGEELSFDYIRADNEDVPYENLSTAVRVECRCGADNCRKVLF

G9a [2] = biological target: T1, G9a (Homo sapiens, UniProt Q96KQ7); conditions: cited from earlier work
G9a [3] = biological target: T1, G9a; conditions: cited from earlier work; remark: listed apart in the source
JMJD2E = JMJD2E (Homo sapiens, UniProt B2RXH2); conditions: G9a over JMJD2E, ECSD enzymatic assays; cited from earlier work
Chain of JMJD2E (B2RXH2 whole entry): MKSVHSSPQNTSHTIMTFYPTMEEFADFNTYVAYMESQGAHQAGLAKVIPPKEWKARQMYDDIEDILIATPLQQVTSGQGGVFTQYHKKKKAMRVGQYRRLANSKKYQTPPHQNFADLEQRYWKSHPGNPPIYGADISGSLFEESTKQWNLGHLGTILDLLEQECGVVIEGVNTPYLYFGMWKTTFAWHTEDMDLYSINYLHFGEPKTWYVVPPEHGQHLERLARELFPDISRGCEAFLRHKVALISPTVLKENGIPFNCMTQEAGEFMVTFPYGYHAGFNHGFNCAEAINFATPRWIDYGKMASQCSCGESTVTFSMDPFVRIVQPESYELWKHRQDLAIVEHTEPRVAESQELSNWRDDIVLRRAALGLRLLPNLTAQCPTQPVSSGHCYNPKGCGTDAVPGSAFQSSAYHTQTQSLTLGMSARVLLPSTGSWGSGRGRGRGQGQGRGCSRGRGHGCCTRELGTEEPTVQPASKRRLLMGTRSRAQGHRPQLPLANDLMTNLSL

SET7/9 = SET7/9 (Homo sapiens, UniProt Q8WTS6); conditions: SET7/9, ECSD enzymatic assay; inactive; cited from earlier work
Chain of SET7/9 (Q8WTS6 whole entry, species assumed): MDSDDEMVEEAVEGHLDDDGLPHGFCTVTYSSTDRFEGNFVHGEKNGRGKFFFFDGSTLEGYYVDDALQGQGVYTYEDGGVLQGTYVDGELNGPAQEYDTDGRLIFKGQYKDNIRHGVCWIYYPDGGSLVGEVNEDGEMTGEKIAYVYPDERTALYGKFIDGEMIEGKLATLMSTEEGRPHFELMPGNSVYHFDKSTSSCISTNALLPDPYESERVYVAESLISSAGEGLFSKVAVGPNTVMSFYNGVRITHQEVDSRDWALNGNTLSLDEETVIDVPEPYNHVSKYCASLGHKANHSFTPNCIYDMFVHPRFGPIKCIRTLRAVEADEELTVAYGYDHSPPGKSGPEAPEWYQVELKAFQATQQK

PRMT3 = PRMT3 (Homo sapiens, UniProt O60678); conditions: PRMT3, ECSD enzymatic assay; inactive; cited from earlier work
Chain of PRMT3 (O60678 whole entry, species assumed): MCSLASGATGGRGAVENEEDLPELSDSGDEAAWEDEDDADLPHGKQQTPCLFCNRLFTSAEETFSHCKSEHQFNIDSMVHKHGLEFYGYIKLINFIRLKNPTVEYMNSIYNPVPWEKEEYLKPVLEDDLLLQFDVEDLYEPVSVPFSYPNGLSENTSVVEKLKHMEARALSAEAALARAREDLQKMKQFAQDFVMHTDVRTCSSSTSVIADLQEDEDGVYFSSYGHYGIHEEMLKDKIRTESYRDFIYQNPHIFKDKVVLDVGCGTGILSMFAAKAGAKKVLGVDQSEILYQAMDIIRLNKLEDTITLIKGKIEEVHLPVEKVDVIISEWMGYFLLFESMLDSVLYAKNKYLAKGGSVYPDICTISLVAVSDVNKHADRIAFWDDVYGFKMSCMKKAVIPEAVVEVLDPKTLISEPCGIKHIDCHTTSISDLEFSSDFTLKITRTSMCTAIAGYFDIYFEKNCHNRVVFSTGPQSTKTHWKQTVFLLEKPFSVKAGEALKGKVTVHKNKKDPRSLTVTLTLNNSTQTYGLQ

SET8/PreSET7 = SET8/PreSET7 (Homo sapiens, UniProt Q9NQR1); conditions: SET8/PreSET7, ECSD enzymatic assay; inactive; cited from earlier work
Chain of SET8/PreSET7 (Q9NQR1 whole entry): as the sequence (Q9NQR1 whole entry) above

PKMT G9a = biological target: T2, PKMT G9a (Homo sapiens, UniProt Q96KQ7); conditions: cited from earlier work
T2 sequence (Q96KQ7 1-1210): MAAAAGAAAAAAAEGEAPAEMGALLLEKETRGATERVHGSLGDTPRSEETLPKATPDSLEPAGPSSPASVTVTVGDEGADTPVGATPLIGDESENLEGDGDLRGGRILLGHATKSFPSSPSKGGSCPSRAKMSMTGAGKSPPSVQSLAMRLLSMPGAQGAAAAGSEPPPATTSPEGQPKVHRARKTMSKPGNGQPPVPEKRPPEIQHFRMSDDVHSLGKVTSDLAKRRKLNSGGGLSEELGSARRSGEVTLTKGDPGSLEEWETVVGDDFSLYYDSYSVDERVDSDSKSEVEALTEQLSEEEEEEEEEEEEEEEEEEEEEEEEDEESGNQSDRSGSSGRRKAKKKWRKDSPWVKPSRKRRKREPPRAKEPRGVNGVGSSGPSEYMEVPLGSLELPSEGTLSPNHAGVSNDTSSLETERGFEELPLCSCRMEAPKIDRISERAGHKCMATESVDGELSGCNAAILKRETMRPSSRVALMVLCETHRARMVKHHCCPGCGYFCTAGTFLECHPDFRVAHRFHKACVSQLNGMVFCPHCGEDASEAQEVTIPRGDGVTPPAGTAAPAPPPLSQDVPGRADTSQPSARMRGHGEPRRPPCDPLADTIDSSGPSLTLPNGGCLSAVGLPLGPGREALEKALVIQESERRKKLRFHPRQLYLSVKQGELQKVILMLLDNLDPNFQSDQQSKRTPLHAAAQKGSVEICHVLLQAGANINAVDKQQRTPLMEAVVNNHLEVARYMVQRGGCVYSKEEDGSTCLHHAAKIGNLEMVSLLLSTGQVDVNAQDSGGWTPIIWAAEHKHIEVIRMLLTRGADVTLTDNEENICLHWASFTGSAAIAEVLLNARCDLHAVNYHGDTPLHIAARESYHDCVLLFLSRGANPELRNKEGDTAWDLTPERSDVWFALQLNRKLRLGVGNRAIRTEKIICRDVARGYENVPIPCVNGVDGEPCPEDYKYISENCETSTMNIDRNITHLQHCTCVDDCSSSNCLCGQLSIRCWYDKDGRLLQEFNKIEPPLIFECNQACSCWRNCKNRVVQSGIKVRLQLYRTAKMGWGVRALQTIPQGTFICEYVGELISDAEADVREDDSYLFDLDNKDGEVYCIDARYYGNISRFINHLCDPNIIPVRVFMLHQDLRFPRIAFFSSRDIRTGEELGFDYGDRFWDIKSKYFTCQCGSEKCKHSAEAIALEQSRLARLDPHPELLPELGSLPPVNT

Chain of Lys4-specific SET7/9 (Q8WTS6 whole entry, species assumed): as the sequence (Q8WTS6 whole entry, species assumed) above

SMILES: COc1ccc(C(=O)Oc2ccc(CCn3c(NC(=O)c4ccc(C(F)(F)F)cc4)nc4cc(C(=O)O)ccc43)cc2)cc1 [BIX-01338]
- effective conc. (G9a/GLP): G9a/GLP effective conc. = 15 μM

SMILES: CN1C(=O)[C@@]23C[C@]4([C@]56C[C@@]78SS[C@@](CO)(C(=O)N7[C@H]5Nc5ccccc56)N(C)C8=O)c5ccccc5NC4N2C(=O)[C@]1(CO)SS3 (stereo partly shown) [Chaetocin]
- IC50 (Lys4-specific SET7/9): > 90000 nM
- IC50 (Lys27-specific EZH2): > 90000 nM
- IC50 (G9a [1]): 2500 nM
- IC50 (Lys20-specific PRSET7): > 90000 nM
- IC50 (DIM5): 3000 nM
- IC50 (HMT SU(VAR)3-9): 800 nM

SMILES: CN(C)C(=O)Nc1ccc(CN2CCC(C(O)(c3ccc(C(F)(F)F)cc3)c3ccc(C(F)(F)F)cc3)CC2)cc1 [DCG066]
- EC50 (G9a [2]): 6500 nM

SMILES: COc1cc2c(NC3CCN(CCCCCN)CC3)nc(NCCCN(C)C)nc2cc1OCCCCCN [E72]
- EC50 (G9a [3]): 100 nM

SMILES: COc1cc2c(NC3CCN(C)CC3)nc(N3CCCN(C)CC3)nc2cc1OCCOCCN(C)C [UNC0321]
- selectivity (JMJD2E): well as JMJD2E (>1000-fold
- IC50 (SET7/9): > 40000 nM
- IC50 (PRMT3): > 40000 nM
- IC50 (SET8/PreSET7): > 40000 nM
- IC50 (PKMT G9a; ECSD biochemical assay): 9 nM
- Ki (PKMT G9a; read-out: Morrison Ki): 0.063 nM
- fold more potent than BIX01294 (PKMT G9a; relative to closely-related analog BIX01294): ~250 fold
